Results from ChEMBL document CHEMBL6083193, “Advancing drug discovery: Thiadiazole derivatives as multifaceted agents in medicinal chemistry and pharmacology” (Bioorg Med Chem, 2024).
Converted amounts (≈) assume the structure as drawn.

Assays:
[1] = Inhibition of alpha amylase (unknown origin) using starch as substrate pre-incubated for 30 mins followed by substrate addition and measured after 30 mins by absorbance based analysis; set-up: species or system Homo sapiens
A549 [2] = experiment: Cytotoxicity against human A549 cells assessed as reduction in cell growth; type: functional, cell-based
[3] = Antioxidant activity assessed as DPPH radical scavenging activity measured for 30 mins by spectrophotometric analysis; type: functional
Alpha glucosidase = Alpha glucosidase (Homo sapiens, UniProt O43451+P10253+P14410+Q2M2H8); experiment: Inhibition of Alpha-glucosidase (unknown origin); type: protein assay
[4] = Inhibition of Alpha-amylase (unknown origin); set-up: species or system Homo sapiens
Mus musculus = experiment: Antiinflammatory activity against carrageenan-induced paw edema in Swiss mouse assessed as reduction in paw edema at 15 mg/kg, po relative to control; type: functional; set-up: scale not given: the % may be the effect or the level left
A2780 = experiment: Anticancer activity against human A2780 cells by MTT assay; type: functional, cell-based
COLO 205 = experiment: Anticancer activity against human COLO 205 cells by MTT assay; type: functional, cell-based
MCF7 = experiment: Anticancer activity against human MCF7 cells by MTT assay; type: functional, cell-based
A549 [5] = experiment: Anticancer activity against human A549 cells by MTT assay; type: functional, cell-based
Toxoplasma gondii = experiment: Antiparasitic activity against Toxoplasma gondii RH infected in human HFF cells; type: functional, organism-based

**Q.** With `O=C(CCl)Nc1nnc(NC(=O)c2cccs2)s1` as the molecule, how does the IC50 [1] read?
**A.** The IC50 was 36100 nM.

**Q.** Which IC50 (A549 [2]) does the source give for `Cc1ccc(Nc2nnc(SCC(=O)N3N=C(c4ccccc4)CC3c3ccc([N+](=O)[O-])cc3)s2)cc1` (centres undefined) here?
**A.** The IC50 was 10000 nM.

**Q.** With `Cc1ccc(/C=C2\S/C(=N\c3nn(-c4ccccc4)nc3C(=O)Nc3nncs3)NC2=O)cc1` as the molecule, how does the IC50 [3] read?
**A.** Its IC50 is 22.63 µg/mL (≈ 46.3 µM).

**Q.** With `S=C(Nc1ccc(Br)cc1)Nc1nsc(Nc2ccc(Cl)cc2)n1` as the molecule, how does the IC50 (Alpha glucosidase) read?
**A.** The IC50 was 2200 nM.

**Q.** And the IC50 [4]?
**A.** The IC50 was 1300 nM.

**Q.** Which IC50 [3] does the source give for `O=C(CCl)Nc1nn(-c2ccccc2)nc1C(=O)Nc1nncs1` here?
**A.** Its IC50 is 22.63 µg/mL (≈ 62.2 µM).

**Q.** Which Activity (Mus musculus) does the source give for `O=C1N/C(=N\c2nnc(C34CC5CC(CC(C5)C3)C4)s2)S/C1=C\c1ccc(F)cc1` here?
**A.** The Activity was 66.7%.

**Q.** Which IC50 (A2780) does the source give for `O=C(Nc1ccc(Cl)cc1)c1ccc(-c2nsc(-c3csc(-c4ccncc4)n3)n2)cc1` here?
**A.** The IC50 was 110 nM.

**Q.** What about the IC50 (COLO 205) of the same molecule?
**A.** The IC50 was 110 nM.

**Q.** What about the IC50 (MCF7) of the same molecule?
**A.** The IC50 was 110 nM.

**Q.** What about the IC50 (A549 [5]) of the same molecule?
**A.** The IC50 was 110 nM.

**Q.** For `O=C1N/C(=N\c2nnc(C34CC5CC(CC(C5)C3)C4)s2)S/C1=C\c1cccc(F)c1F`, which Activity (Mus musculus) is on record?
**A.** Its Activity is 66.7%.

**Q.** Which IC50 (Toxoplasma gondii) does the source give for `Cc1nc[nH]c1-c1nnc(Nc2ccccc2Br)s1` here?
**A.** Its IC50 is 4.7 µg/mL (≈ 14 µM).

**Q.** For `Cc1nc[nH]c1-c1nnc(Nc2cccc(F)c2)s1`, which IC50 (Toxoplasma gondii) is on record?
**A.** Its IC50 is 4.7 µg/mL (≈ 17.1 µM).

**Q.** For `CC(C)Nc1nnc(SCC(=O)N2N=C(c3ccccc3)CC2c2ccc([N+](=O)[O-])cc2)s1` (centres undefined), which IC50 (A549 [2]) is on record?
**A.** The IC50 was 10000 nM.

**Q.** Which IC50 [3] does the source give for `O=C1CS/C(=N\c2nn(-c3ccccc3)nc2C(=O)Nc2nncs2)N1` here?
**A.** Its IC50 is 44.35 µg/mL (≈ 115 µM).

**Q.** With `O=C1N/C(=N\c2nnc(C34CC5CC(CC(C5)C3)C4)s2)S/C1=C\c1ccc(Cl)cc1Cl` as the molecule, how does the Activity (Mus musculus) read?
**A.** The Activity was 66.7%.

**Q.** With `O=C(NC1=NN2C(=O)CN=C2S1)c1cccs1` as the molecule, how does the IC50 [1] read?
**A.** The IC50 was 36100 nM.

**Q.** Which IC50 (Alpha glucosidase) does the source give for `O=[N+]([O-])c1ccccc1NC(=S)Nc1nsc(Nc2cccc(C(F)(F)F)c2)n1` here?
**A.** Its IC50 is 2200 nM.

**Q.** What about the IC50 [4] of the same molecule?
**A.** The IC50 was 1300 nM.

**Q.** With `Cc1ccc(/C=C2\S/C(=N/c3nnc(C45CC6CC(CC(C6)C4)C5)s3)NC2=O)cc1` as the molecule, how does the Activity (Mus musculus) read?
**A.** The Activity was 66.7%.

**Q.** Which results are given for `COc1cccc(NC(=S)Nc2nsc(Nc3ccc(Cl)c(Cl)c3)n2)c1`?
**A.** IC50 (Alpha glucosidase): 2200 nM; IC50 [4]: 1300 nM

**Q.** With `O=C1N/C(=N\c2nnc(C34CC5CC(CC(C5)C3)C4)s2)S/C1=C\c1ccc(O)cc1` as the molecule, how does the Activity (Mus musculus) read?
**A.** Its Activity is 66.7%.

**Q.** Which Activity (Mus musculus) does the source give for `O=C1N/C(=N\c2nnc(C34CC5CC(CC(C5)C3)C4)s2)S/C1=C\c1c(F)cccc1F` here?
**A.** The Activity was 66.7%.

**Q.** Which Activity (Mus musculus) does the source give for `O=C1N/C(=N\c2nnc(C34CC5CC(CC(C5)C3)C4)s2)S/C1=C\c1ccc([N+](=O)[O-])cc1` here?
**A.** Its Activity is 66.7%.

**Q.** For `CCCCNc1nnc(SCC(=O)N2N=C(c3ccccc3)CC2c2ccc([N+](=O)[O-])cc2)s1` (centres undefined), which IC50 (A549 [2]) is on record?
**A.** Its IC50 is 10000 nM.

**Q.** With `Cc1nc[nH]c1-c1nnc(Nc2cccc(Cl)c2)s1` as the molecule, how does the IC50 (Toxoplasma gondii) read?
**A.** The IC50 was 4.7 µg/mL (≈ 16.1 µM).

**Q.** With `COc1cccc(/C=C2\S/C(=N/c3nnc(C45CC6CC(CC(C6)C4)C5)s3)NC2=O)c1` as the molecule, how does the Activity (Mus musculus) read?
**A.** The Activity was 66.7%.

**Q.** With `O=C1N/C(=N\c2nnc(C34CC5CC(CC(C5)C3)C4)s2)S/C1=C\c1ccccc1[N+](=O)[O-]` as the molecule, how does the Activity (Mus musculus) read?
**A.** Its Activity is 66.7%.

**Q.** With `Cc1nc[nH]c1-c1nnc(Nc2cccc(I)c2)s1` as the molecule, how does the IC50 (Toxoplasma gondii) read?
**A.** The IC50 was 4.7 µg/mL (≈ 12.3 µM).

**Q.** Which IC50 (Alpha glucosidase) does the source give for `O=[N+]([O-])c1cccc(Nc2nc(NC(=S)Nc3ccc(Cl)cc3Cl)ns2)c1` here?
**A.** The IC50 was 2200 nM.

**Q.** And the IC50 [4]?
**A.** The IC50 was 1300 nM.

**Q.** Which IC50 (Alpha glucosidase) does the source give for `CSc1ccc(C2SCC(=O)N2c2nnc(-c3ccccc3)s2)cc1` (centres undefined) here?
**A.** The IC50 was < 500000 nM.

**Q.** Which IC50 [3] does the source give for `COc1ccc(/C=C2\S/C(=N\c3nn(-c4ccccc4)nc3C(=O)Nc3nncs3)NC2=O)cc1` here?
**A.** The IC50 was 22.63 µg/mL (≈ 44.9 µM).

**Q.** With `O=C(Nc1ccc([N+](=O)[O-])cc1)c1ccc(-c2nsc(-c3csc(-c4ccncc4)n3)n2)cc1` as the molecule, how does the IC50 (A2780) read?
**A.** The IC50 was 110 nM.

**Q.** And the IC50 (COLO 205)?
**A.** Its IC50 is 110 nM.

**Q.** What about the IC50 (MCF7) of the same molecule?
**A.** Its IC50 is 110 nM.

**Q.** And the IC50 (A549 [5])?
**A.** The IC50 was 110 nM.

**Q.** With `O=C(Nc1ccc(Br)cc1)c1ccc(-c2nsc(-c3csc(-c4ccncc4)n3)n2)cc1` as the molecule, how does the IC50 (A2780) read?
**A.** The IC50 was 110 nM.

**Q.** What about the IC50 (COLO 205) of the same molecule?
**A.** The IC50 was 110 nM.

**Q.** And the IC50 (MCF7)?
**A.** Its IC50 is 110 nM.

**Q.** And the IC50 (A549 [5])?
**A.** Its IC50 is 110 nM.

**Q.** For `O=C1N/C(=N\c2nnc(C34CC5CC(CC(C5)C3)C4)s2)S/C1=C\c1ccc(Br)cc1`, which Activity (Mus musculus) is on record?
**A.** Its Activity is 66.7%.

**Q.** Which IC50 [3] does the source give for `Nc1nn(-c2ccccc2)nc1C(=O)Nc1nncs1` here?
**A.** The IC50 was 39.27 µg/mL (≈ 137 µM).

**Q.** For `O=C(CSc1nnc(NC2CCCCC2)s1)N1N=C(c2ccccc2)CC1c1ccc([N+](=O)[O-])cc1` (centres undefined), which IC50 (A549 [2]) is on record?
**A.** Its IC50 is 10000 nM.

**Q.** With `FC(F)(F)c1cccc(Nc2nc(NC(=S)Nc3ccccc3)ns2)c1` as the molecule, how does the IC50 (Alpha glucosidase) read?
**A.** Its IC50 is 2200 nM.

**Q.** What about the IC50 [4] of the same molecule?
**A.** The IC50 was 1300 nM.

**Q.** Which IC50 (A2780) does the source give for `N#Cc1ccc(NC(=O)c2ccc(-c3nsc(-c4csc(-c5ccncc5)n4)n3)cc2)cc1` here?
**A.** Its IC50 is 110 nM.

**Q.** What about the IC50 (COLO 205) of the same molecule?
**A.** The IC50 was 110 nM.

**Q.** What about the IC50 (MCF7) of the same molecule?
**A.** Its IC50 is 110 nM.

**Q.** What about the IC50 (A549 [5]) of the same molecule?
**A.** The IC50 was 110 nM.

**Q.** Which Activity (Mus musculus) does the source give for `O=C1N/C(=N\c2nnc(C34CC5CC(CC(C5)C3)C4)s2)S/C1=C\c1c(Cl)cccc1Cl` here?
**A.** Its Activity is 66.7%.

**Q.** Which IC50 [1] does the source give for `N=c1cc(N)nc2sc(NC(=O)c3cccs3)nn12` here?
**A.** Its IC50 is 36100 nM.
